In publication PMC11050599, “Novel Tetracyclic Azaphenothiazines with the Quinoline Ring as New Anticancer and Antibacterial Derivatives of Chlorpromazine” (International Journal of Molecular Sciences, 2024):
Converted amounts (≈) assume the structure as drawn.

Legend:
PC3 (prostate cancer) = assay: MTT assay, PC3 cells; assay type: cell-based, human
Description: (§1) The human cell lines, such as A549 (lung cancer), MDA-MB-231 (breast cancer), MiaPaca-2 (pancreatic cancer), PC3 (metastatic prostate cancer), HCT-116 (colon carcinoma), and HaCaT (immortalized keratinocytes), were sourced from the American Type Culture Collection (ATCC) in Rockville, USA. Culturing conditions varied as follows: HCT116 cells were cultured in MEM (ThermoSci, Waltham, MA, USA), A549, MDA-MB-231, MiaPaca, HaCaT cells in DMEM High Glucose and PC3 cells were cultured in RPMI (Biowest SAS, Nuaillé, France). The growth medium consisted of 10% fetal bovine serum (FBS, Sigma-Aldrich, St. Louis, MO, USA), 20 mM HEPES (Biowest, Nuaillé, France), and antibiotics (100 U/mL of penicillin and 100 μg/mL of streptomycin) from Gibco, Grand Island, NY, USA. […] These compounds were added to 96-well plates containing study cells (1 × 10^4 cells per well) and incubated for 72 h. […] Cell absorbance results were incorporated into the formula for calculating the relative MTT level (%), enabling the assessment of cell viability following exposure to the test compounds. The cell viability percentage represents the MTT reduction in cells treated with the test compounds compared to the control sample, where only the medium was added to the cells.

[1] = test system: MDA-MB-231 (breast cancer); assay: MTT assay, MDA-MB-231 cells; assay type: cell-based, human
Method in brief: (§2)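 Cells at 1 × 10^4 per well were exposed to compounds for 72 h, in MEM (HCT116), DMEM high glucose (MDA-MB-231, HaCaT) or RPMI (PC3), each with 10% FBS and 20 mM HEPES. Viability is given as MTT reduction relative to medium-only control (%).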

A549 (lung cancer) = assay: MTT assay, A549 cells; assay type: cell-based, human; settings: Homo sapiens, A549, 72 h, read-out: IC50 A549
Method in brief: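 Test compounds are added to plated cells (1 × 10^4 per well) for 72 h. Cell viability is calculated as the percentage of MTT reduction compared with cells given medium alone.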

[2] = test system: MiaPaCa-2 (pancreas cancer); assay: MTT assay, MiaPaCa-2 cells; assay type: cell-based, human
Description: as §1

HCT116 cells [3] = assay: Annexin V-FITC/PI apoptosis flow cytometry, HCT116; assay type: cell-based, human; settings: representative dot plot, Figure 4C, IC50, 72 h
Description: (§3) To analyze the number of cells in early apoptosis, late apoptosis, or necrosis, A549, MiaPaca-2, and HCT-116 cell lines were cultured in 6-well plates with a seeding density of 1 × 10^5 cells per well. These cells were then treated with selected compounds (4, 5, and 8) at their respective IC50 concentrations and incubated for 72 h. Subsequently, a commercially available kit, the FITC: Annexin V Apoptosis Detection Kit I from BD Biosciences Pharmingen in San Jose, CA, USA, was utilized to assess apoptosis. After 72 h the cells were harvested, washed, and labeled with Annexin V-FITC and propidium iodide (PI) following the manufacturer’s protocol (Becton Dickinson), as previously described. The stained cells were analyzed by flow cytometry. The cells were identified as early apoptotic (Annexin V+/PI−) or late apoptotic/necrotic (Annexin V+/PI+).

cancer cell lines = assay: MTT assay, summary over several cell lines; assay type: cell-based, human; settings: Homo sapiens, read-out: IC50 range toward four cancerous cell lines
Description: as §1

A549 cells [4] = assay: Cell cycle analysis by flow cytometry, A549; assay type: cell-based, human; settings: compound at IC50, 24 h
Description: (§4) In brief, cells were seeded at a density of 1 × 10^5 cells/well on a six-well plate and allowed to adhere for 24 h. […] Both population cells (the attached and detached) were collected and centrifuged at 400× g for 5 min at 4 °C. After centrifugation, the cells were washed twice with 0.9% NaCl and subsequently fixed in 500 μL of 70 % cold ethanol overnight.
(§5) Before analysis, the fixed cells underwent another centrifugation step at 850× g for 5 min at 4 °C and were washed with PBS. Following the washes, the cells were incubated with 50 μL of RNase (100 μg/mL) and 200 μL of propidium iodide (PI) (50 μg/mL) at 37 °C for 30 min in the dark. Finally, 100 μL of PBS was added to each sample. Flow cytometry (Becton Dickinson FACS Verse, Franklin Lakes, NJ, USA) was then used to analyze the cell cycle distribution, identifying cells in various stages including sub-G1, G0/G1, S, and G2/M phases. Each assay was performed in quadruplicate.

MiaPaCa-2 cells = assay: Annexin V-FITC/PI apoptosis flow cytometry, MiaPaCa-2; assay type: cell-based, human; settings: representative dot plot, Figure 4B, IC50, 72 h
Description: as §3

A549 cells [5] = assay: Annexin V-FITC/PI apoptosis flow cytometry, A549; assay type: cell-based, human; settings: representative dot plot, Figure 4A, IC50, 72 h
Description: as §3

[6] = test system: S. epidermidis ATCC 12228; assay: MIC broth microdilution; assay type: cell-based; settings: Staphylococcus epidermidis, ATCC12228, 19 h, read-out: MIC S. epidermidis ATCC 12228
Method in brief: (§6)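 Two-fold serial broth microdilution in Mueller-Hinton II broth, final inoculum adjusted to […]. Compounds dissolved in DMSO, final solvent at most 1%.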

E. coli ATCC 25922 = assay: MIC broth microdilution; assay type: cell-based
Method in brief: as §6

P. aeruginosa ATCC 15442 = assay: MIC broth microdilution; assay type: cell-based; settings: Pseudomonas aeruginosa, ATCC15442, 19 h, read-out: MIC P. aeruginosa ATCC 15442
Method in brief: as §6

S. aureus ATCC 25923 = assay: MIC broth microdilution; assay type: cell-based; settings: Staphylococcus aureus, ATCC25923, 19 h, read-out: MIC S. aureus ATCC 25923
Method in brief: as §6

S. aureus ATCC 6538 = assay: MIC broth microdilution; assay type: cell-based; settings: Staphylococcus aureus, ATCC6538, 19 h, read-out: MIC S. aureus ATCC 6538
Method in brief: as §6

S. aureus ATCC 29213 = assay: MIC broth microdilution; assay type: cell-based; settings: Staphylococcus aureus, ATCC29213, 19 h, read-out: MIC S. aureus ATCC 29213
Method in brief: as §6

S. aureus NCTC 4163 = assay: MIC broth microdilution; assay type: cell-based; settings: Staphylococcus aureus, NCTC4163, 19 h, read-out: MIC S. aureus NCTC 4163
Method in brief: as §6

[7] = test system: S. epidermidis ATCC 35984; assay: MIC broth microdilution; assay type: cell-based; settings: Staphylococcus epidermidis, ATCC35984, 19 h, read-out: MIC S. epidermidis ATCC 35984
Method in brief: as §6

[8] = test system: HaCaT (immortalized human keratinocytes); assay: MTT assay, HaCaT normal cells; assay type: cell-based; settings: Homo sapiens, HaCaT, 72 h, read-out: IC50 HaCaT (Table 3)
Method in brief: as §2

HCT116 (colon cancer) = assay: MTT assay, HCT116 cells; assay type: cell-based, human
Description: as §1

HCT116 cells [9] = assay: Cell cycle analysis by flow cytometry, HCT116; assay type: cell-based, human; settings: IC50, 24 h, compared to the control
Description: as §4, §5

[10] = SI = IC50 for normal cell line (HaCaT)/IC50 cancer cell line

With `O=C(NCCCl)NCCCCN1c2cc(Cl)ccc2Sc2cc3ccccc3nc21` [Compound 21, 1-(4-(8-Chloroquino[3,2-b]benzo[1,4]thiazin-6-yl)butyl)-3-(2-chloroethyl)urea] the IC50 (PC3 (prostate cancer); Homo sapiens, PC-3, 72 h, read-out: IC50 PC3) was 76.6 ± 9.8 µM, the “SI PC3” value (PC3 (prostate cancer); [10]) was 0.1 and the IC50 ([1]; Homo sapiens, MDA-MB-231, 72 h, read-out: IC50 MDA) was 7.4 ± 1.2 µM. For the same compound, the “SI MDA” value [1, 10] was 0.15, the IC50 (A549 (lung cancer)) was 6.98 ± 1.2 µM and the IC50 ([2]; Homo sapiens, MIA PaCa-2, 72 h, read-out: IC50 MiaPaCa-2) was 6.4 ± 2.4 µM. The “SI MiaPaCa-2” value [2, 10] was 0.2, the “HCT-116: Alive” value (HCT116 cells [3]) was 17.91% and the “HCT-116: Early Apoptotic” value (HCT116 cells [3]) was 1.71%. For the same compound, the “HCT-116: Necrotic” value (HCT116 cells [3]) was 5.16%, the “HCT-116: Necrotic/Late Apoptotic” value (HCT116 cells [3]) was 75.22% and the IC50 (cancer cell lines) was 6.4 to 11.3 µM. The “percentage of Sub G1 phase A549 cells” value (A549 cells [4]) was 27.6%, the “MiaPaca: Alive” value (MiaPaCa-2 cells) was 8.66% and the “MiaPaca: Early Apoptotic” value (MiaPaCa-2 cells) was 2.45%. For the same compound, the “MiaPaca: Necrotic” value (MiaPaCa-2 cells) was 37.47%, the “MiaPaca: Necrotic/Late Apoptotic” value (MiaPaCa-2 cells) was 51.42% and the “A549: Alive” value (A549 cells [5]) was 3.27%. The “A549: Early Apoptotic” value (A549 cells [5]) was 1.31%, the “A549: Necrotic” value (A549 cells [5]) was 15.90% and the “A549: Necrotic/Late Apoptotic” value (A549 cells [5]) was 79.52%. For the same compound, the MIC [6] was 2 mg/L (≈ 4.33 µM), the “MIC E. coli ATCC 25922” value (E. coli ATCC 25922; 19 h, 35 °C) was 8 mg/L (≈ 17.3 µM) and the MIC (E. coli ATCC 25922; Escherichia coli, ATCC25922, 19 h, read-out: MIC E. coli ATCC 25922) was 8 mg/L (≈ 17.3 µM). For the same compound, the MIC (P. aeruginosa ATCC 15442) was over 256 mg/L, the MIC (S. aureus ATCC 25923) was 2 mg/L (≈ 4.33 µM) and the MIC (S. aureus ATCC 6538) was 2 mg/L (≈ 4.33 µM). It also gave an MIC (S. aureus ATCC 29213) of 2 mg/L (≈ 4.33 µM), an MIC (S. aureus NCTC 4163) of 2 mg/L (≈ 4.33 µM) and an MIC [7] of 2 mg/L (≈ 4.33 µM). The IC50 [8] was 1.1 ± 0.3 µM, the IC50 (HCT116 (colon cancer); Homo sapiens, HCT-116, 72 h, read-out: IC50 HCT116) was 11.3 ± 2.2 µM and the “SI HCT116” value (HCT116 (colon cancer); [10]) was 0.1. For the same compound, the “increase in the cell amount at the sub-G1 phase, HCT116” value (HCT116 cells [9]) was 12 fold, the “increase in the number of cells in the G2/M phase, HCT116” value (HCT116 cells [9]) was “approximately 1.3 fold” and the “increase in the number of cells in the S phase, HCT116” value (HCT116 cells [9]) was “approximately 2 fold”.
